According to patent US20240024290A1, “PHARMACEUTICAL COMPOSITIONS COMPRISING CANNABINOID AGONIST” (ARTELO BIOSCIENCES LIMITED, priority 2020, published 2024):
“Also recorded” adds a separate entry of the source.

Experiment: Forced degradation study of the active substance (HPLC assay area %, sample observations)
Format: physicochemical
Procedure: HPLC Conditions • Instrument: Agilent 1100/1200 • Column: YMC Triart Phenyl, 4.6×150 mm. 3 μm particle size (ex-YMC P.N.TPH12S03-1546PTH) • Mobile Phase: A—10 mM Ammonium acetate pH 6.0 • B—Acetonitrile • Flow Rate: 1.0 ml·min-1 • Injection Volume: 5 μl • Detection: UV @ 220 nm • Column Temp: 30° C. • Post Run: 4 minutes
• Diluent: Acetonitrile:deionised water (1:1) • Standard Solution: Make up a solution of 0.2 mg/ml. This is to be made up fresh prior to use at T=3 and T=7 days.
Accurately weigh […] of the active substance into a 100 mL volumetric flask and dissolve in 50 mL of diluent. Dilute the resulting solution to volume with diluent and mix well.
Table 1 below details the different study tests performed. All solution samples are prepared and stored in sealed vials and heated samples are cooled to ambient prior to sampling to prevent evaporation. Analysis took place on days 3 and 7 after stressing initiation for solutions described for Tests 1-6 and once exposure was complete for samples described in Tests 7-10. Due to the low levels of degradation observed at 7 days, Tests 3, 4 and 5 were heated to 80° C. for a further 4 days and analysed, and Test 6 was analysed after a further 6 days.
The photostability samples were exposed to a total of 1.92 million lux hours and an integrated near-UV energy of 374.6 Whm^−2.

In the case of `CCS(=O)(=O)Nc1ccc2c(c1)nc(C(C)(C)C)n2CC1CCC(F)(F)CC1` [Compound I, N-(2-(tert-butyl)-1-((4,4-difluorocyclohexyl)methyl)-1H-benzimidazol-5-yl)ethanesulfonamide], the Sample observations (Test 1 Control (solution, ambient temperature), over study period, listed as active substance) is reported as “Clear colourless solution; also recorded: No change over study period”, the “Assay of active substance (area %)” value (Test 1 solution control, 0 days) is reported as 99.40 area % and the “Assay of active substance (area %)” value (Test 1 solution control, 3 days) is reported as 99.42 area %. For the same molecule, the “Assay of active substance (area %)” value (Test 1 solution control, 7 days) was 99.30 area %, the “Assay of active substance (area %)” value (Test 1 solution control, 11 days) was 99.39 area % and the Sample observations (Test 2 Solid state 100° C., over study period, listed as active substance) was “orange solid over study period”. For the same molecule, the “Assay of active substance (area %)” value (Test 2 solid state at 100° C., 3 days) was 99.43 area %, the “Assay of active substance (area %)” value (Test 2 solid state at 100° C., 7 days) was 99.40 area % and the Sample observations (Test 3 Acid 60° C., over study period, listed as active substance) was “Clear colourless solution; also recorded: No change over study period”. For the same molecule, the Sample observations (Test 3 Acid (1M, ambient), over study period, listed as active substance) was “No change over study period; also recorded: Clear colourless solution”, the “Assay of active substance (area %)” value (Test 3 acid (1M) ambient temperature, 3 days) was 99.40 area % and the “Assay of active substance (area %)” value (Test 3 acid (1M) ambient temperature, 7 days) was 99.41 area %. For the same molecule, the “Assay of active substance (area %)” value (Test 3 acid (1M) at 60° C. until day 7, 80° C. until day 11, 11 days) was 98.87 area %, the “Assay of active substance (area %)” value (Test 3 acid (1M) at 60° C., 3 days) was 99.37 area % and the “Assay of active substance (area %)” value (Test 3 acid (1M) at 60° C., 7 days) was 99.35 area %. For the same molecule, the Sample observations (Test 4 Base 40° C. (so in the source), over study period, listed as active substance) was “Clear colourless solution; also recorded: No change over study period”, the Sample observations (Test 4 Base (0.5M, ambient), over study period, listed as active substance) was “Clear colourless solution; also recorded: No change over study period” and the “Assay of active substance (area %)” value (Test 4 base (0.5M) ambient temperature, 3 days) was 99.40 area %. The “Assay of active substance (area %)” value (Test 4 base (0.5M) ambient temperature, 7 days) was 99.37 area %, the “Assay of active substance (area %)” value (Test 4 base (0.5M) at 60° C. until day 7, 80° C. until day 11, 11 days) was 99.16 area % and the “Assay of active substance (area %)” value (Test 4 base (0.5M) at 60° C., 3 days) was 99.34 area %. The “Assay of active substance (area %)” value (Test 4 base (0.5M) at 60° C., 7 days) was 99.32 area %, the Sample observations (Test 5 Heat 60° C. (solution), over study period, listed as active substance) was “Clear colourless solution; also recorded: No change over study period” and the “Assay of active substance (area %)” value (Test 5 solution at 60° C. until day 7, 80° C. until day 11, 11 days) was 98.00 area %. For the same molecule, the “Assay of active substance (area %)” value (Test 5 solution at 60° C., 3 days) was 99.13 area %, the “Assay of active substance (area %)” value (Test 5 solution at 60° C., 7 days) was 99.34 area % and the Sample observations (Test 6 Peroxide (1.5%), over study period, listed as active substance) was “Clear colourless solution; also recorded: No change over study period”. The “Assay of active substance (area %)” value (Test 6 peroxide (1.5%), 3 days) was 98.50 area %, the “Assay of active substance (area %)” value (Test 6 peroxide (1.5%), 7 days) was 97.75 area % and the “Assay of active substance (area %)” value (Test 6 peroxide (1.5%), 13 days) was 96.58 area %. For the same molecule, the Sample observations (Test 7 Photostability (Solution Control), listed as active substance) was “Clear colourless solution; also recorded: No change over study period”, the “Assay of active substance (area %)” value (Test 7 photocontrol solution) was 99.40 area % and the “Assay of active substance (area %)” value (Test 8 photo treated solution (1.92 million lux hours, 374.6 Whm^-2 near-UV)) was 74.53 area %. For the same molecule, the Sample observations (Test 9 Photostability (Solid Control)) was “Off white solid. No change over study period”, the “Assay of active substance (area %)” value (Test 9 photocontrol solid) was 99.40 area % and the Sample observations (Test 10 Photostability (Solid Treated), listed as active substance) was “orange solid over study period”. The “Assay of active substance (area %)” value (Test 10 phototreated solid (1.92 million lux hours, 374.6 Whm^-2 near-UV)) was 99.31 area %, the Forced degradation outcome (as a solution under photostability conditions) was “Major degradation” and the Forced degradation outcome (peroxide conditions, 1M acid and 0.5M base extended to 80° C., solution heated to 80° C.) was “slight degradation”. For the same molecule, the Forced degradation outcome (solution at room temperature, solid at 100° C., 1M acid and 0.5M base at room temperature and 60° C., solution at 60° C., photostability as a solid) was “stable to degradation”.
